Test results reported in article PMC10525927, “First Generation of Antioxidant Precursors for Bioisosteric Se-NSAIDs: Design, Synthesis, and In Vitro and In Vivo Anticancer Evaluation” (Antioxidants, 2023).
Where two headings read alike, the source gives them in different places.

Legend:
[1] = system: DU-145 prostate cancer cells; test: MTT cell viability assay, DU-145; format: cell-based; conditions: mean ± SD
Description: (§1) The cell lines were purchased from the American Type Culture Collection (ATCC). The cancer cell lines DU-145, PC-3, T-47D, MDA-MB-231, H1299, and A549, and the non-tumorigenic cells (184B5 and BEAS-2B), were maintained in RPMI 1640 medium (Gibco, Alcobendas, Madrid, Spain) supplemented with 10% fetal bovine serum (FBS; Gibco) and 1% antibiotics (10.00 units/mL penicillin and 10.00 mg/mL streptomycin; Gibco). Colon cancer cells HT-29 and HCT-116 were cultured in McCoy’s 5A medium (Gibco) supplemented with 10% fetal bovine serum (FBS; Gibco) and 1% antibiotics (10.00 units/mL penicillin and 10.00 mg/mL streptomycin; Gibco). Cells were maintained in tissue culture flasks at 37 °C and 5% CO2. The culture medium was replaced every three days.
(§2) The antiproliferative activity and selectivity in vitro of the Se-NSAID derivatives were determined by the (3-(4,5-dimethylthiazol-2-yl)-2,5-diphenyltetrazolium bromide) (MTT) assay. Compounds were dissolved in DMSO at a concentration of 0.01 M and serial dilutions were prepared. The Se-NSAID derivatives were tested at seven concentrations ranging between 1 and 100 µM in the colon (HT-29 and HCT-116), prostate (DU-145 and PC-3), breast (MDA-MB-231 and T-47D), and lung (H1299 and A549) cancer cell lines. The non-tumorigenic breast (184B5) and lung (BEAS-2B) cell lines were also tested to assess the selectivity of the compounds following the same procedure. A total of 1 × 10^4 cells were seeded per well in 96-well plates and incubated at 5% CO2 and 37 °C for 24 h. Then, cells were treated with either DMSO or increasing concentrations of the corresponding Se-NSAID derivatives for 48 h. A volume of 20 µL of MTT (5 mg/mL) was added to each well 2.5 h before the termination point. At the end of the experiment, the medium was removed, and the resultant formazan crystals formed by mitochondrial reduction of MTT were dissolved in 50 µL of DMSO. Absorbance was measured at 550 nm. IC50, GI50, TGI, and LC50 values were calculated using OriginPro version 8.5.1. software by nonlinear curve fitting. Selectivity indexes (SI) were calculated as the ratio of the IC50 values determined for the nonmalignant and the tumoral cells in the breast (IC50 (184B5)/IC50 (MDA-MB-231) and IC50 (184B5)/IC50 (T-47D)) and lung (IC50 (BEAS-2B)/IC50 (H1299) and IC50 (BEAS-2B)/IC50 (A549)) cell lines. Data were obtained from at least three independent experiments performed in triplicates.

[2] = system: MDA-MB-231 breast cancer cells; test: MTT cell viability assay, MDA-MB-231; format: cell-based; conditions: mean ± SD
Description: as §1, §2

[3] = system: 184B5 non-tumorigenic breast (mammary gland) cells; test: MTT cell viability assay, 184B5; format: cell-based; conditions: mean ± SD; for IC50: nonmalignant breast cells
Description: as §1, §2

[4] = system: A549 lung cancer cells; test: MTT cell viability assay, A549; format: cell-based; conditions: mean ± SD
Description: as §1, §2

[5] = system: T-47D breast cancer cells; test: MTT cell viability assay, T-47D; format: cell-based; conditions: 48 h, mean ± SD
Description: as §1, §2

[6] = system: HCT-116 colon cancer cells; test: MTT cell viability assay, HCT-116; format: cell-based; conditions: mean ± SD
Description: as §1, §2

[7] = system: HT-29 colon cancer cells; test: MTT cell viability assay, HT-29; format: cell-based; conditions: mean ± SD
Description: as §1, §2

[8] = system: PC-3 prostate cancer cells; test: MTT cell viability assay, PC-3; format: cell-based; conditions: 48 h, mean ± SD
Description: as §1, §2

[9] = system: H1299 lung cancer cells; test: MTT cell viability assay, H1299; format: cell-based; conditions: mean ± SD
Description: as §1, §2

[10] = system: BEAS-2B non-tumorigenic lung (bronchial epithelium) cells; test: MTT cell viability assay, BEAS-2B; format: cell-based; conditions: 48 h, mean ± SD; for IC50: nonmalignant lung cells
Description: as §1, §2

[11] = system: A549 lung cancer cells; set-up: method as in PMID 26750401, PMID 32987314, PMID 33799070, PMID 36257283; conditions: MTT; parent NSAIDs for reference, some values obtained from the literature; cited from earlier work
[12] = system: HT-29 colon cancer cells; set-up: method as in PMID 26750401, PMID 32987314, PMID 33799070, PMID 36257283; conditions: MTT; parent NSAIDs for reference, some values obtained from the literature; cited from earlier work
[13] = system: MDA-MB-231 breast cancer cells; set-up: method as in PMID 26750401, PMID 32987314, PMID 33799070, PMID 36257283; conditions: MTT; parent NSAIDs for reference, some values obtained from the literature; cited from earlier work
[14] = system: T-47D breast cancer cells; set-up: method as in PMID 26750401, PMID 32987314, PMID 33799070, PMID 36257283; conditions: MTT; parent NSAIDs for reference, some values obtained from the literature; cited from earlier work
[15] = system: DU-145 prostate cancer cells; set-up: method as in PMID 26750401, PMID 32987314, PMID 33799070, PMID 36257283; conditions: MTT; parent NSAIDs for reference, some values obtained from the literature; cited from earlier work
[16] = system: H1299 lung cancer cells; set-up: method as in PMID 26750401, PMID 32987314, PMID 33799070, PMID 36257283; conditions: MTT; parent NSAIDs for reference, some values obtained from the literature; cited from earlier work
[17] = system: PC-3 prostate cancer cells; set-up: method as in PMID 26750401, PMID 32987314, PMID 33799070, PMID 36257283; conditions: MTT; parent NSAIDs for reference, some values obtained from the literature; cited from earlier work
[18] = system: HCT-116 colon cancer cells; set-up: method as in PMID 26750401, PMID 32987314, PMID 33799070, PMID 36257283; conditions: MTT; parent NSAIDs for reference, some values obtained from the literature; cited from earlier work
[19] = in vitro TGI concentration, 48 h, Table S1
[20] = in vitro TGI concentration, Table S1

## CC(C(=O)[Se][Se]C(=O)C(C)c1cccc(C(=O)c2ccccc2)c1)c1cccc(C(=O)c2ccccc2)c1 (stereo not shown) [Compound 4, 2-(3-Benzoylphenyl)propanoic diselenoperoxyanhydride]
[1]; 48 h, Table S1
  LD50 DU-145: 39.6 ± 2.4 µM
[1]; Homo sapiens, DU-145, 48 h
  IC50: 27.9 ± 3.2 µM
[1]; Homo sapiens, DU-145, 48 h, Table S1
  GI50: 19.5 ± 3.5 µM
[1]; [19]
  TGI DU-145: 28.5 ± 2.9 µM
[2]; Homo sapiens, MDA-MB-231, 48 h
  IC50: 4.3 ± 1.2 µM
[2]; Homo sapiens, MDA-MB-231, 48 h, Table S1
  GI50: 2.4 ± 0.5 µM
[2]; [19]
  TGI MDA-MB-231: 4.2 ± 1.7 µM
[3]; 48 h
  IC50: 5.9 ± 0.8 µM
[3]; Homo sapiens, 184B5, 48 h, Table S1
  GI50: 4.8 ± 0.3 µM
[3]; Homo sapiens, 184B5, 48 h
  IC50: ~5 µM
[3]; [19]
  TGI 184B5: 5.4 ± 0.4 µM
[4]; Homo sapiens, A549, 48 h
  IC50: 11.7 ± 0.9 µM
[4]; Homo sapiens, A549, 48 h, Table S1
  GI50: 8.1 ± 0.4 µM
[4]; [19]
  TGI A549: 19.9 ± 3.4 µM
[5]; Table S1
  LD50 T-47D: 27.2 ± 2.3 µM
[5]; Homo sapiens, T47D
  IC50: 26 ± 2 µM
[5]; Homo sapiens, T47D, Table S1
  GI50: > 100 µM
[5]; [20]
  TGI T-47D: 9.5 ± 2.3 µM
[6]; Homo sapiens, HCT-116, 48 h
  IC50: 5.9 ± 1.1 µM
[6]; Homo sapiens, HCT-116, 48 h, Table S1
  GI50: 4.3 ± 0.6 µM
[6]; [19]
  TGI HCT-116: 6.7 ± 1.9 µM
[7]; 48 h, Table S1
  LD50 HT-29: 62.5 ± 14.3 µM
[7]; Homo sapiens, HT-29, 48 h
  IC50: 39.7 ± 3.3 µM
[7]; Homo sapiens, HT-29, 48 h, Table S1
  GI50: 24.4 ± 2.6 µM
[7]; [19]
  TGI HT-29: 36.2 ± 3.0 µM
[8]
  IC50: 5.8 ± 0.6 µM
[8]; Table S1
  GI50: 4.8 ± 0.4 µM
  LD50 PC-3: 6.7 ± 1.2 µM
[8]; [20]
  TGI PC-3: 5.5 ± 0.5 µM
[9]; 48 h, Table S1
  LD50 H1299: 43.5 ± 1.8 µM
[9]; Homo sapiens, NCI-H1299, 48 h
  IC50: 31.6 ± 1.7 µM
[9]; Homo sapiens, NCI-H1299, 48 h, Table S1
  GI50: 24.6 ± 1.8 µM
[9]; [19]
  TGI H1299: 33.6 ± 1.6 µM
[10]; Table S1
  LD50 BEAS-2B: 5.4 ± 0.4 µM
[10]
  IC50: 5.2 ± 0.4 µM
[10]; Homo sapiens, BEAS-2B, Table S1
  GI50: 4.2 ± 0.6 µM
[10]; Homo sapiens, BEAS-2B
  IC50: ~5 µM
[10]; [20]
  TGI BEAS-2B: 4.7 ± 0.3 µM

## CC(C(=O)O)c1cccc(C(=O)c2ccccc2)c1 (stereo not shown) [Ket, ketoprofen]
[11]
  IC50: > 50 µM
[12]
  IC50: > 50 µM
[13]
  IC50: > 50 µM
[14]
  IC50: > 50 µM
[15]
  IC50: > 50 µM
[16]
  IC50: > 50 µM
[17]
  IC50: > 50 µM
[18]
  IC50: > 50 µM
